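Five compound concentrations were applied to cells in 96-well plates for 48 hours; endpoints were derived by simple linear interpolation of the resulting dose-response curve. Here, GI50 denotes the concentration required for 50% inhibition of growth. The concentration for full growth arrest is given as TGI.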
Assays:
Assay in all cases: NCI tumour cell line growth inhibition, 48 h
HT29 colon = tested on: HT29 colon
OVCAR-5 ovarian = tested on: OVCAR-5 ovarian
HOP-92 NSCLC = tested on: HOP-92 NSCLC
SK-MEL-28 melanoma = tested on: SK-MEL-28 melanoma
MALME-3M melanoma = tested on: MALME-3M melanoma
UO-31 renal = tested on: UO-31 renal
K-562 leukemia = tested on: K-562 leukemia
RPMI-8226 leukemia = tested on: RPMI-8226 leukemia
COLO 205 colon = tested on: COLO 205 colon
A498 renal = tested on: A498 renal
EKVX NSCLC = tested on: EKVX NSCLC
SK-OV-3 ovarian = tested on: SK-OV-3 ovarian
SK-MEL-2 melanoma = tested on: SK-MEL-2 melanoma
MDA-MB-231 breast = tested on: MDA-MB-231 breast
SNB-75 CNS = tested on: SNB-75 CNS
SF-539 CNS = tested on: SF-539 CNS
OVCAR-8 ovarian = tested on: OVCAR-8 ovarian
IGROV1 ovarian = tested on: IGROV1 ovarian
HCC-2998 colon = tested on: HCC-2998 colon
HCT-116 colon = tested on: HCT-116 colon
NCI-H522 lung = tested on: NCI-H522 lung
CAKI-1 renal = tested on: CAKI-1 renal
OVCAR-4 ovarian = tested on: OVCAR-4 ovarian
OVCAR-3 ovarian = tested on: OVCAR-3 ovarian
NCI-H226 lung = tested on: NCI-H226 lung
SN12C renal = tested on: SN12C renal
M14 melanoma = tested on: M14 melanoma
SF-295 CNS = tested on: SF-295 CNS
HS 578T breast = tested on: HS 578T breast
PC-3 prostate = tested on: PC-3 prostate
KM12 colon = tested on: KM12 colon
NCI/ADR-RES ovarian = tested on: NCI/ADR-RES ovarian
HCT-15 colon = tested on: HCT-15 colon
SNB-19 CNS = tested on: SNB-19 CNS
T-47D breast = tested on: T-47D breast
NCI-H460 lung = tested on: NCI-H460 lung
UACC-62 melanoma = tested on: UACC-62 melanoma
A549 NSCLC = tested on: A549 NSCLC
MCF7 breast = tested on: MCF7 breast
SR leukemia = tested on: SR leukemia
UACC-257 melanoma = tested on: UACC-257 melanoma
HOP-62 NSCLC = tested on: HOP-62 NSCLC
HL-60(TB) leukemia = tested on: HL-60(TB) leukemia
SK-MEL-5 melanoma = tested on: SK-MEL-5 melanoma
SF-268 CNS = tested on: SF-268 CNS
786-0 renal = tested on: 786-0 renal
TK-10 renal = tested on: TK-10 renal
ACHN renal = tested on: ACHN renal
MOLT-4 leukemia = tested on: MOLT-4 leukemia
NCI-H23 lung = tested on: NCI-H23 lung
DU-145 prostate = tested on: DU-145 prostate
U251 CNS = tested on: U251 CNS
BT-549 breast = tested on: BT-549 breast
SW-620 colon = tested on: SW-620 colon
MDA-MB-435 = tested on: MDA-MB-435
LOX IMVI melanoma = tested on: LOX IMVI melanoma
CCRF-CEM leukemia = tested on: CCRF-CEM leukemia

## CC(C)(C)Nc1nc2c(OCCc3ccccc3)cccn2c1-c1cccc(Oc2ccccc2)c1
HT29 colon
  GI50: 3.75 µM
  TGI: > 100 µM
OVCAR-5 ovarian
  GI50: 17.8 µM
  TGI: > 100 µM
HOP-92 NSCLC
  GI50: 2.22 µM
  TGI: 7.08 µM
SK-MEL-28 melanoma
  GI50: 4.87 µM
  TGI: > 100 µM
MALME-3M melanoma
  GI50: 8.12 µM
  TGI: > 100 µM
UO-31 renal
  GI50: 3.13 µM
  TGI: 80.7 µM
K-562 leukemia
  GI50: 6.18 µM
  TGI: > 100 µM
RPMI-8226 leukemia
  GI50: 3.4 µM
  TGI: > 100 µM
COLO 205 colon
  GI50: 12.3 µM
  TGI: 25.9 µM
A498 renal
  GI50: 8.91 µM
  TGI: 83.9 µM
EKVX NSCLC
  GI50: 4.54 µM
  TGI: > 100 µM
SK-OV-3 ovarian
  GI50: 24.2 µM
  TGI: > 100 µM
SK-MEL-2 melanoma
  GI50: 5.16 µM
  TGI: 26.8 µM
MDA-MB-231 breast
  GI50: 18.7 µM
  TGI: 83 µM
SNB-75 CNS
  GI50: 5.53 µM
  TGI: > 100 µM
SF-539 CNS
  GI50: 16.3 µM
  TGI: 43.1 µM
OVCAR-8 ovarian
  GI50: 14.8 µM
  TGI: > 100 µM
IGROV1 ovarian
  GI50: 12.4 µM
  TGI: > 100 µM
HCC-2998 colon
  GI50: 6.21 µM
  TGI: > 100 µM
HCT-116 colon
  GI50: 3.42 µM
  TGI: > 100 µM
NCI-H522 lung
  GI50: 6.95 µM
  TGI: > 100 µM
CAKI-1 renal
  GI50: 9.11 µM
  TGI: > 100 µM
OVCAR-4 ovarian
  GI50: 4 µM
  TGI: > 100 µM
OVCAR-3 ovarian
  GI50: 3.71 µM
  TGI: > 100 µM
NCI-H226 lung
  GI50: 3.45 µM
  TGI: > 100 µM
SN12C renal
  GI50: 5.17 µM
  TGI: > 100 µM
M14 melanoma
  GI50: 18.6 µM
  TGI: > 100 µM
SF-295 CNS
  GI50: 5.54 µM
  TGI: > 100 µM
HS 578T breast
  GI50: 5.51 µM
  TGI: > 100 µM
PC-3 prostate
  GI50: 4 µM
  TGI: > 100 µM
KM12 colon
  GI50: 7.42 µM
  TGI: > 100 µM
NCI/ADR-RES ovarian
  GI50: 7.51 µM
  TGI: > 100 µM
HCT-15 colon
  GI50: 3.89 µM
  TGI: > 100 µM
SNB-19 CNS
  GI50: 6.62 µM
  TGI: > 100 µM
T-47D breast
  GI50: 3.13 µM
  TGI: > 100 µM
NCI-H460 lung
  GI50: 4.6 µM
  TGI: > 100 µM
UACC-62 melanoma
  GI50: 3.43 µM
  TGI: 53.8 µM
A549 NSCLC
  GI50: 7.42 µM
  TGI: > 100 µM
MCF7 breast
  GI50: 4.34 µM
  TGI: > 100 µM
SR leukemia
  GI50: 12.3 µM
  TGI: > 100 µM
UACC-257 melanoma
  GI50: 4.1 µM
  TGI: > 100 µM
HOP-62 NSCLC
  GI50: 15.1 µM
  TGI: > 100 µM
HL-60(TB) leukemia
  GI50: 18.6 µM
  TGI: > 100 µM
SK-MEL-5 melanoma
  GI50: 4.95 µM
  TGI: 17.6 µM
SF-268 CNS
  GI50: 8.03 µM
  TGI: > 100 µM
786-0 renal
  GI50: 3.8 µM
  TGI: > 100 µM
TK-10 renal
  GI50: 26.9 µM
  TGI: > 100 µM
ACHN renal
  GI50: 7.67 µM
  TGI: > 100 µM
MOLT-4 leukemia
  GI50: 11 µM
  TGI: > 100 µM
NCI-H23 lung
  GI50: 5.86 µM
  TGI: > 100 µM
DU-145 prostate
  GI50: 19.4 µM
  TGI: > 100 µM
U251 CNS
  GI50: 3.89 µM
  TGI: > 100 µM
BT-549 breast
  GI50: 3.48 µM
  TGI: 29.7 µM
SW-620 colon
  GI50: 7.97 µM
  TGI: > 100 µM
MDA-MB-435
  GI50: 4.97 µM
  TGI: > 100 µM
LOX IMVI melanoma
  GI50: 8.54 µM
  TGI: 41.2 µM
CCRF-CEM leukemia
  GI50: 7.07 µM
  TGI: > 100 µM
